Assay results taken from EP1146895B1, “THROMBOPOIETIN COMPOSITIONS FOR INCREASING CIRCULATING PLATELETS” (BOARD OF REGENTS, THE UNIVERSITY OF TEXAS SYSTEM, priority 1999, dated 2000).

Key:
[1] = test system: platelets; assay: Reversible block of in vitro ADP- and collagen-induced aggregation by second messenger effectors; type: cell-based; settings: agonist (ADP, collagen)-induced
Description: The reversible inhibition induced by this formulation effectively reduces the development of the platelet storage lesion when platelets are cryopreserved. The following is a brief description of the second messenger pathways manipulated in order to control activation of platelets during storage, and the specific inhibitors used to abrogate the initiation of the respective pathways.

[2] = test system: carboplatin-induced thrombocytopenia; assay: Phase I/II study of subcutaneous rhTPO prior to and following carboplatin in gynecologic malignancy: hematologic effects; settings: for Number (%) of Patients Requiring Platelet Transfusions: Cycle-1 (Carboplatin) or Cycle-2 (Carboplatin+ rhTPO)
Description: Carboplatin is effective in advanced-stage platin-sensitive recurrent disease; however, cumulative thrombocytopenia is frequently dose-limiting. […] During dose-escalation phase, rhTPO was given by S.C. injection as a single dose (0.6, 1.2, 2.4, 3.6 mcg/kg) prior to carboplatin and for four doses following a second cycle of carboplatin. […]
The inventor performed a phase I/II study of rhTPO prior to and following carboplatin in 29 patients with advanced gynecologic malignancy. During the dose-escalation phase, rhTPO was administered by subcutaneous injection as a single dose (0.6, 1.2, 2.4, and 3.6 mcg/kg) prior to carboplatin, and for four doses following a second cycle of carboplatin. During dose-expansion phase (n=12). rhTPO was used at the optimal biologic dose only as a secondary prophylaxis for severe thrombocytopenia.
The study included two components, a dose-escalation (safety) component and dose-expansion (activity) component using the optimal dose. During the dose-escalation part of this trial, rhTPO was administered as a single dose by subcutaneous injection 3 weeks before chemotherapy in order to evaluate clinical tolerance and the hematopoietic effects of rhTPO alone. […] Thus Cycle- 1 (chemotherapy alone) served as an internal control for each patient for Cycle-2 (chemotherapy with rhTPO).
At least three patients were entered at each dose level of rhTPO (0.6, 1.2, 2.4, and 3.6 mcg/m^2/d). […] In the subsequent cycles, rhTPO was used at OBD as a secondary prophylaxis by same schedule [days 2, 4, 6, 8 (n=6)] or by a modified schedule [days -1, 1, 3, 5 (n=6)]. The latter schedule was used to assess whether earlier administration of TPO can further augment the degree of protection.
Patients received platelet transfusions for severe thrombocytopenia (i.e. platelet count <20,000/mm^3), RBC transfusions for anemia (i.e. hemoglobin [Hb]<8 gm/dL), and antibiotics for neutropenic fever (i.e. temperature ≥38.3°C and absolute neutrophil count <500/mm^3) or when clinically indicated. The use of G-CSF was not allowed during the first two cycles of chemotherapy, but was allowed in the later cycles (3 - 6) only if clinically indicated (i.e. as a secondary prophylaxis in those patients who experienced prolonged neutropenia or delayed neutrophil recovery).
(§1) Before and during the course of the clinical trial, patients were monitored with complete history, physical examinations, and laboratory tests including complete blood cell counts, serum chemistry, urinalysis, chest X-ray, and electrocardiograph. Blood counts were performed three times a week until the expected nadir period was reached and then daily until the counts had recovered. Serum samples were examined for antibodies reactive to full length TPO three times prior to study and weekly while on study. Positive sera (optical density ratio ≥1.5) were further analyzed by anti-truncated TPO antibody assay, C-mpl blocking assay, and cell-proliferation biologic assay. Patients positive in all assays were considered to be at risk for antibody-induced thrombocytopenia. Bone marrow (BM) aspiration and biopsy were done in all patients before, and one week after rhTPO treatment, and in selected patients at a later time point (day 10 or 14) in the prechemotherapy cycle. Tumor response was evaluated by physical examination, tumor marker (CA-125) evaluation, and imaging studies performed at periodic intervals.
Hematopoietic toxicity from Cycle-1 1 of chemotherapy (no rhTPO) was compared with the results from Cycle-2 (with rhTPO) by means of a paired T test for continuously measured variables.

[3] = Phase I/II carboplatin study: clinical tolerance, adverse events, anti-TPO antibodies; type: in vivo, humans
[4] = test system: gynecologic malignancy; assay: Phase I/II carboplatin study: tumor response; type: in vivo, humans; settings: carboplatin AUC 11 with or without rhTPO, 25 evaluable patients
Protocol: as §1

[5] = test system: recurrent ovarian cancer; settings: 800 mg/m^2 without cytokine support, 30 patients (Ozols et al., 1987); cited from earlier work
[6] = 22 patients, C-1 (C) or C-2 (C+T), mean ± SEM
[7] = Cycle-1 Carboplatin alone or Cycle-2 Carboplatin + rhTPO, n=27

Nc1ncnc2c1ncn2[C@@H]1O[C@H](CO)[C@@H](O)[C@H]1O [Adenosine]
effect on in vitro aggregation of platelets [1]: reversibly inhibits

N=C(N)NC(=O)c1nc(Cl)c(N)nc1N [Amiloride]
effect on in vitro aggregation of platelets [1]: effectively and reversibly blocks

N.N.O=C([O-])C1(C(=O)[O-])CCC1.[Pt+2] [Carboplatin]
Nadir PLT ([2]; 22 patients, all rhTPO doses, C-1 carboplatin alone (C), C-2 carboplatin + rhTPO (C+T), mean ± SEM): 20 ±5 x10^3/mm^3
No. (%) of PTS transfused ([2]; 22 patients, C-1 (C) or C-2 (C+T)): 11 (50)
Days PLT <50 × 10^3/mm^3 [2, 6]: 6.3 ±1.0 days
Days PLT <100 × 10^3/mm^3 [2, 6]: 10.3 ± 1.3 days
Number (%) of Patients Requiring Platelet Transfusions ([2]; All Patients (0.6 - 3.6 mcg/kg) n=27): 16 (59%)
Number (%) of Patients Requiring Platelet Transfusions ([2]; Optimal Biologic Dose (1.2 mcg/kg) n=16): 12(75%)
incidence of thrombocytopenia requiring platelet transfusions ([2]; cycle-1 without rhTPO, secondary prophylaxis patients): 10 of 12
Fever, number of patients ([3]; Cycle-1 Carboplatin alone n=27 or Cycle-2 Carboplatin + rhTPO n=27): 12
Anorexia, number of patients [3, 7]: 14
Anorexia, number of patients experiencing grade ≥3 toxicity [3, 7]: 1
Bone pain, number of patients [3, 7]: 7
Chills, number of patients [3, 7]: 8
Constipation, number of patients [3, 7]: 11
Constipation, number of patients experiencing grade ≥3 toxicity [3, 7]: 2
Diarrhea, number of patients [3, 7]: 8
Diarrhea, number of patients experiencing grade ≥3 toxicity [3, 7]: 1
Fatigue, number of patients [3, 7]: 12
Fatigue, number of patients experiencing grade ≥3 toxicity [3, 7]: 10
Headache, number of patients [3, 7]: 11
Headache, number of patients experiencing grade ≥3 toxicity [3, 7]: 4
Mucositis, number of patients [3, 7]: 4
Myalgia, number of patients [3, 7]: 10
Nausea, number of patients [3, 7]: 18
Nausea, number of patients experiencing grade ≥3 toxicity [3, 7]: 3
Vomiting, number of patients [3, 7]: 12
Vomiting, number of patients experiencing grade ≥3 toxicity ([3]; Cycle-1 Carboplatin alone, n=27): 1
major tumor response [4]: 50%
Major responses [5]: 27%
